In the supplement of paper PMC10307832:

Tests used:
Assay in all cases: relative viability (nuclei count vs DMSO), 5 days (fraction); higher = more cells survive
KIN001-266 = compound: CCN1CCC(CC1)N2C=C(N=N2)CNC3=CC4=C(C(=CN=C4C(=C3)Cl)C#N)NC5=CC(=C(C=C5)F)Cl [KIN001-266]
How it was run: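 MetaXpress counted nuclei in 4× images of lung cancer cell lines that had been fixed, permeabilised and Hoechst-stained in one step. Before that, cells in 1536-well plates were kept overnight at 37 °C, pinned with five √10-spaced library-drug doses on vehicle-anchored plates, and cultured 5 days without medium change. Viability takes treated-well nuclei over vehicle-well nuclei and uses the median across plates. Plates were accepted only at control CV below 25% and at least one doubling.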

KIN001-266 + Trametinib = compound: CCN1CCC(CC1)N2C=C(N=N2)CNC3=CC4=C(C(=CN=C4C(=C3)Cl)C#N)NC5=CC(=C(C=C5)F)Cl [KIN001-266] + CC(=O)Nc1cccc(-n2c(=O)n(C3CC3)c(=O)c3c(Nc4ccc(I)cc4F)n(C)c(=O)c(C)c32)c1 [Trametinib] (partner 0.02 µM)
How it was run: (§1)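 For relative viability, nuclei counts in treated wells were divided by those in vehicle wells. Lung cancer cell lines had been pin-tool dosed in 1536-well plates the day after seeding and cultured for 5 days, then fixed and stained in one step (final 0.05% Triton X-100, 1% formaldehyde, 1 ug/ml Hoechst) and imaged at 4×. Doses were one drug alone or a fixed anchor-drug dose plus five library-drug doses (not always all listed) in √10 steps, and values are duplicate-plate medians.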

KIN001-266 + OSI-027 = compound: CCN1CCC(CC1)N2C=C(N=N2)CNC3=CC4=C(C(=CN=C4C(=C3)Cl)C#N)NC5=CC(=C(C=C5)F)Cl [KIN001-266] + COc1cccc2cc(-c3nc([C@H]4CC[C@H](C(=O)O)CC4)n4ncnc(N)c34)[nH]c12 [OSI-027] (partner 0.5 µM)
How it was run: as §1

KIN001-266 + Phenformin = compound: CCN1CCC(CC1)N2C=C(N=N2)CNC3=CC4=C(C(=CN=C4C(=C3)Cl)C#N)NC5=CC(=C(C=C5)F)Cl [KIN001-266] + N=C(N)NC(=N)NCCc1ccccc1 [Phenformin] (partner 250 µM)
How it was run: as §1

Cell Line | relative viability (KIN001-266; 0.08 µM) | relative viability (KIN001-266; 0.253 µM) | relative viability (KIN001-266; 0.8 µM) | relative viability (KIN001-266; 2.53 µM) | relative viability (KIN001-266; 8 µM) | relative viability (KIN001-266 + Trametinib; first compound 0.08 µM) | relative viability (KIN001-266 + Trametinib; first compound 0.253 µM) | relative viability (KIN001-266 + Trametinib; first compound 0.8 µM) | relative viability (KIN001-266 + Trametinib; first compound 2.53 µM) | relative viability (KIN001-266 + Trametinib; first compound 8 µM) | relative viability (KIN001-266 + OSI-027; first compound 0.08 µM) | relative viability (KIN001-266 + OSI-027; first compound 0.253 µM) | relative viability (KIN001-266 + OSI-027; first compound 0.8 µM) | relative viability (KIN001-266 + OSI-027; first compound 2.53 µM) | relative viability (KIN001-266 + OSI-027; first compound 8 µM) | relative viability (KIN001-266 + Phenformin; first compound 0.08 µM) | relative viability (KIN001-266 + Phenformin; first compound 0.253 µM) | relative viability (KIN001-266 + Phenformin; first compound 0.8 µM) | relative viability (KIN001-266 + Phenformin; first compound 2.53 µM) | relative viability (KIN001-266 + Phenformin; first compound 8 µM)
NCI-H650 | 1.03 | 0.972 | 1.13 | 0.955 | 1.15 | 0.982 | 0.974 | 0.942 | 0.944 | 0.979 | 0.62 | 0.591 | 0.563 | 0.493 | 0.55 | 0.499 | 0.503 | 0.495 | 0.463 | 0.507
NCI-H661 | 0.956 | 0.997 | 1.01 | 0.958 | 1.01 | 0.566 | 0.624 | 0.595 | 0.5 | 0.435 | 0.693 | 0.745 | 0.723 | 0.627 | 0.514 | 0.297 | 0.278 | 0.284 | 0.263 | 0.258
NCI-H727 | 1.03 | 0.966 | 0.843 | 0.904 | 0.656 | 0.431 | 0.384 | 0.391 | 0.391 | 0.402 | 0.646 | 0.573 | 0.593 | 0.541 | 0.527 | 0.612 | 0.615 | 0.509 | 0.595 | 0.364
NCI-H838 | 0.935 | 0.967 | 0.961 | 0.949 | 0.829 | 0.535 | 0.494 | 0.557 | 0.465 | 0.385 | 0.36 | 0.435 | 0.423 | 0.361 | 0.343 | 0.668 | 0.624 | 0.595 | 0.574 | 0.427
NCI-H1355 | 0.986 | 1.02 | 0.979 | 0.924 | 0.908 | 0.445 | 0.473 | 0.48 | 0.406 | 0.394 | 0.476 | 0.426 | 0.4 | 0.373 | 0.397 | 0.454 | 0.419 | 0.441 | 0.414 | 0.373
NCI-H1395 | 0.948 | 0.974 | 1.14 | 0.892 | 0.844 | 1.02 | 1.11 | 1.08 | 0.925 | 0.985 | 0.719 | 0.761 | 0.715 | 0.594 | 0.591 | 0.453 | 0.421 | 0.503 | 0.417 | 0.442
NCI-H1437 | 0.976 | 0.988 | 1.02 | 0.994 | 0.883 | 0.581 | 0.577 | 0.539 | 0.561 | 0.383 | 0.938 | 0.91 | 0.862 | 0.85 | 0.56 | 0.346 | 0.272 | 0.286 | 0.291 | 0.251
NCI-H1650 | 0.964 | 1.01 | 0.895 | 0.805 | 0.464 | 0.581 | 0.602 | 0.42 | 0.457 | 0.373 | 0.872 | 0.786 | 0.507 | 0.397 | 0.337 | 0.479 | 0.448 | 0.326 | 0.261 | 0.305
